Data published in the CheMixHub viscosity set.

Experiment: xn = mol fraction of the nth substance listed

CCCCC(C)=O + CC(=O)CC(C)C
298.15 K, 101 kPa
Conditions	viscosity [mPa·s]
x2 = 0.1164	0.581
x2 = 0.2196	0.575
x2 = 0.3357	0.571
x2 = 0.4413	0.566
x2 = 0.5503	0.562
x2 = 0.6632	0.558
x2 = 0.7765	0.553
x2 = 0.8841	0.548

COCC(C)O (stereo not given) + CC(=O)CC(C)C
298.15 K, 101 kPa
Conditions	viscosity [mPa·s]
x2 = 0.1057	1.373
x2 = 0.2037	1.167
x2 = 0.3075	1.006
x2 = 0.4185	0.875
x2 = 0.5295	0.774
x2 = 0.6413	0.696
x2 = 0.7612	0.63
x2 = 0.8745	0.582

O=[N+]([O-])c1ccccc1 + CC(=O)O
viscosity [mPa·s], 101 kPa
Conditions	x2 = 0.165	x2 = 0.3078	x2 = 0.4326	x2 = 0.5425	x2 = 0.6402	x2 = 0.7274	x2 = 0.8059	x2 = 0.8768	x2 = 0.9412
298.15 K	1.731	1.662	1.602	1.546	1.488	1.428	1.365	1.3	1.232
308.15 K	1.48	1.453	1.407	1.35	1.288	1.224	1.159	1.095	1.033
318.15 K	1.314	1.365	1.353	1.306	1.24	1.164	1.085	1.006	0.9289

ClC(Cl)=C(Cl)Cl + CC(=O)c1ccccc1
298.15 K, 101 kPa
Conditions	viscosity [mPa·s]
x2 = 0.1255	0.893
x2 = 0.3215	1.023
x2 = 0.5397	1.198
x2 = 0.7329	1.382
x2 = 0.9142	1.555

CC(C)CCl + CC(C)(C)O
viscosity [mPa·s], 101.33 kPa
Conditions	x1 = 0.0982	x1 = 0.2011	x1 = 0.3047	x1 = 0.4029	x1 = 0.5031	x1 = 0.6023	x1 = 0.6979	x1 = 0.7997	x1 = 0.8948
298.15 K	2.345	1.477	1.065	0.8424	0.6988	0.604	0.5388	0.4863	0.3827
313.15 K	1.359	0.9661	0.7571	0.6303	0.5423	0.481	0.437	0.4053	0.3751

ClC(Cl)=C(Cl)Cl + CC(C)(C)O
303.15 K, 101.33 kPa
Conditions	viscosity [mPa·s]
x1 = 0.1027	2.16
x1 = 0.2143	1.557
x1 = 0.3299	1.249
x1 = 0.4102	1.122
x1 = 0.5188	1.006
x1 = 0.6036	0.946
x1 = 0.7072	0.895
x1 = 0.8124	0.852
x1 = 0.9075	0.821

O=[N+]([O-])c1ccccc1 + CC(C)(C)O
viscosity [mPa·s], 101.33 kPa
Conditions	x1 = 0.0627	x1 = 0.1307	x1 = 0.2059	x1 = 0.2864	x1 = 0.3758	x1 = 0.4746	x1 = 0.5843	x1 = 0.7067	x1 = 0.8442
298.15 K	3.205	2.576	2.256	2.001	1.838	1.711	1.655	1.697	1.681
303.15 K	2.375	2.152	1.896	1.732	1.622	1.506	1.468	1.477	1.538

C1CCC2CCCCC2C1 (stereo not given) + CC(C)CC(C)(C)C
viscosity [mPa·s], 101 kPa
Conditions	x2 = 0.1031	x2 = 0.1995	x2 = 0.299	x2 = 0.4001	x2 = 0.5004	x2 = 0.6002	x2 = 0.6994	x2 = 0.8002	x2 = 0.899
293.15 K	2.019	1.701	1.435	1.203	1.026	0.876	0.758	0.656	0.571
298.15 K	1.842	1.561	1.323	1.114	0.955	0.818	0.711	0.62	0.54
303.15 K	1.688	1.436	1.223	1.034	0.89	0.765	0.667	0.581	0.509
308.15 K	1.553	1.327	1.135	0.963	0.831	0.717	0.627	0.547	0.482
313.15 K	1.434	1.23	1.056	0.905	0.778	0.673	0.59	0.516	0.456
318.15 K	1.328	1.142	0.983	0.838	0.727	0.63	0.552	0.483	0.425
323.15 K	1.234	1.066	0.921	0.788	0.686	0.597	0.525	0.461	0.408

CCCCCCCCCCCCCC + CC(C)CC(C)(C)C
298.15 K, 101 kPa
Conditions	viscosity [mPa·s]
x2 = 0.1084	1.813
x2 = 0.1551	1.724
x2 = 0.1801	1.702
x2 = 0.2807	1.483
x2 = 0.4042	1.265
x2 = 0.5162	1.086
x2 = 0.6304	0.9193
x2 = 0.7095	0.8085
x2 = 0.7868	0.7168
x2 = 0.8111	0.6841
x2 = 0.8616	0.6216
x2 = 0.9166	0.5603
x2 = 0.9516	0.5263
x2 = 0.9768	0.5023
